The record followed here is patent US11952584B2, “Functional peptides having antimicrobial activity against phytopathogenic microorganisms” (TOYOTA JIDOSHA KABUSHIKI KAISHA, priority 2019, dated 2024).

Values joined by “and” are separate entries in the source; they are usually repeats but may differ in a detail not shown here. Equal entries are not always repeated. Where two headings read alike, the source gives them in different places.

Type in all cases: cell-based
For one test, the system named is Botrytis cinerea. As to conditions: 25° C., 1 day or 2 days.
Test [1] concerns Colletotrichum orbiculare. The settings on record: 25° C., 1 day or 2 days.
The subject of test [2] is Colletotrichum destructivum. As to conditions: 25° C., 1 day or 2 days.
The next test concerns Fusarium oxysporum.
The next test concerns Pyricularia oryzae. As to conditions: 25° C., 1 day or 2 days.

Consider “RIWKG (listed as Solanum lycopersicum) [TsORF18-2-5aa-16]”, for which the “Plate antimicrobial activity test Botrytis cinerea (level)” value in the test on Botrytis cinerea (peptide 1 μM), with Botrytis cinerea (peptide 10 μM) and in the test on Botrytis cinerea (peptide 100 μM) was 0 each time. Further, the “Plate antimicrobial activity test Collectotrichum orbiculare (level)” value in test [1] (peptide 1 μM), in test [1] (peptide 10 μM) and in test [1] (peptide 100 μM) was 0 throughout. Also, the “Plate antimicrobial activity test Colletotrichum destructivum (level)” value in test [2] (peptide 1 μM), in test [2] (peptide 10 μM) and in test [2] (peptide 100 μM) was 0 throughout. Further, the “Plate antimicrobial activity test Fusarium oxysporum (level)” value with Fusarium oxysporum turned out to be 0. In addition, the “Plate antimicrobial activity test Pyricularia oryzae (level)” value in the test on Pyricularia oryzae (peptide 1 μM), in the test on Pyricularia oryzae (peptide 10 μM) and with Pyricularia oryzae (peptide 100 μM) was 0 each time.

For the substance “RIWKGKTS (listed as Solanum lycopersicum) [TsORF18-2-8aa-16]”, the “Plate antimicrobial activity test Botrytis cinerea (level)” value with Botrytis cinerea (peptide 1 μM) is reported as 0; with Botrytis cinerea (peptide 10 μM), 0; in the test with Botrytis cinerea (peptide 100 μM) it was 2. Further, the “Plate antimicrobial activity test Collectotrichum orbiculare (level)” value amounted to 0 in test [1] (peptide 1 μM), 0 in test [1] (peptide 10 μM) and 1 in test [1] (peptide 100 μM). The “Plate antimicrobial activity test Colletotrichum destructivum (level)” value in test [2] (peptide 1 μM), in test [2] (peptide 10 μM) and in test [2] (peptide 100 μM) was 0 throughout. Further, the “Plate antimicrobial activity test Fusarium oxysporum (level)” value with Fusarium oxysporum is 1 and 0. Also, the “Plate antimicrobial activity test Pyricularia oryzae (level)” value with Pyricularia oryzae (peptide 1 μM), in the test on Pyricularia oryzae (peptide 10 μM) and in the test on Pyricularia oryzae (peptide 100 μM) was 0 each time.

“RTRKF (listed as Solanum lycopersicum) [TsORF18-2-5aa-10]”: the “Plate antimicrobial activity test Botrytis cinerea (level)” value in the test on Botrytis cinerea (peptide 1 μM) is 0; with Botrytis cinerea (peptide 10 μM), 0; with Botrytis cinerea (peptide 100 μM), 1. The “Plate antimicrobial activity test Collectotrichum orbiculare (level)” value in test [1] (peptide 1 μM), in test [1] (peptide 10 μM) and in test [1] (peptide 100 μM) was 0 in each case. The “Plate antimicrobial activity test Colletotrichum destructivum (level)” value in test [2] (peptide 1 μM), in test [2] (peptide 10 μM) and in test [2] (peptide 100 μM) was 0 in each case. In the test on Fusarium oxysporum, the “Plate antimicrobial activity test Fusarium oxysporum (level)” value is 0. Also, the “Plate antimicrobial activity test Pyricularia oryzae (level)” value with Pyricularia oryzae (peptide 1 μM), in the test on Pyricularia oryzae (peptide 10 μM) and in the test on Pyricularia oryzae (peptide 100 μM) was 0 in each case.

Consider “SERTR (listed as Solanum lycopersicum) [TsORF18-2-5aa-8]”, for which the “Plate antimicrobial activity test Botrytis cinerea (level)” value in the test on Botrytis cinerea (peptide 1 μM), in the test on Botrytis cinerea (peptide 10 μM) and in the test on Botrytis cinerea (peptide 100 μM) was 0 in each case. For the same substance, the “Plate antimicrobial activity test Collectotrichum orbiculare (level)” value in test [1] (peptide 1 μM), in test [1] (peptide 10 μM) and in test [1] (peptide 100 μM) was 0 each time. The “Plate antimicrobial activity test Colletotrichum destructivum (level)” value in test [2] (peptide 1 μM), in test [2] (peptide 10 μM) and in test [2] (peptide 100 μM) was 0 throughout. The “Plate antimicrobial activity test Fusarium oxysporum (level)” value in the test with Fusarium oxysporum was determined as 0. For the same substance, the “Plate antimicrobial activity test Pyricularia oryzae (level)” value in the test with Pyricularia oryzae (peptide 1 μM), in the test with Pyricularia oryzae (peptide 10 μM) and in the test with Pyricularia oryzae (peptide 100 μM) was 0 each time.

With “SERTRKFW (listed as Solanum lycopersicum) [TsORF18-2-8aa-8]”, the “Plate antimicrobial activity test Botrytis cinerea (level)” value in the test on Botrytis cinerea (peptide 1 μM), in the test with Botrytis cinerea (peptide 10 μM) and in the test with Botrytis cinerea (peptide 100 μM) was 0 throughout. Further, the “Plate antimicrobial activity test Collectotrichum orbiculare (level)” value in test [1] (peptide 1 μM), in test [1] (peptide 10 μM) and in test [1] (peptide 100 μM) was 0 in each case. Moreover, the “Plate antimicrobial activity test Colletotrichum destructivum (level)” value in test [2] (peptide 1 μM), in test [2] (peptide 10 μM) and in test [2] (peptide 100 μM) was 0 each time. In addition, the “Plate antimicrobial activity test Fusarium oxysporum (level)” value with Fusarium oxysporum came to 0. The “Plate antimicrobial activity test Pyricularia oryzae (level)” value with Pyricularia oryzae (peptide 1 μM), in the test with Pyricularia oryzae (peptide 10 μM) and in the test on Pyricularia oryzae (peptide 100 μM) was 0 throughout.

As to “TRKFW (listed as Solanum lycopersicum) [TsORF18-2-5aa-11]”, the “Plate antimicrobial activity test Botrytis cinerea (level)” value in the test with Botrytis cinerea (peptide 1 μM), in the test on Botrytis cinerea (peptide 10 μM) and in the test on Botrytis cinerea (peptide 100 μM) was 0 each time. In addition, the “Plate antimicrobial activity test Collectotrichum orbiculare (level)” value in test [1] (peptide 1 μM), in test [1] (peptide 10 μM) and in test [1] (peptide 100 μM) was 0 throughout. The “Plate antimicrobial activity test Colletotrichum destructivum (level)” value in test [2] (peptide 1 μM), in test [2] (peptide 10 μM) and in test [2] (peptide 100 μM) was 0 in each case. Further, in the test with Fusarium oxysporum, the “Plate antimicrobial activity test Fusarium oxysporum (level)” value came to 0. The “Plate antimicrobial activity test Pyricularia oryzae (level)” value in the test with Pyricularia oryzae (peptide 1 μM), with Pyricularia oryzae (peptide 10 μM) and in the test on Pyricularia oryzae (peptide 100 μM) was 0 in each case.

“WKGKT (listed as Solanum lycopersicum) [TsORF18-2-5aa-18]”: the “Plate antimicrobial activity test Botrytis cinerea (level)” value with Botrytis cinerea (peptide 1 μM), in the test with Botrytis cinerea (peptide 10 μM) and in the test on Botrytis cinerea (peptide 100 μM) was 0 in each case. In addition, the “Plate antimicrobial activity test Collectotrichum orbiculare (level)” value in test [1] (peptide 1 μM), in test [1] (peptide 10 μM) and in test [1] (peptide 100 μM) was 0 throughout. The “Plate antimicrobial activity test Colletotrichum destructivum (level)” value in test [2] (peptide 1 μM), in test [2] (peptide 10 μM) and in test [2] (peptide 100 μM) was 0 in each case. For the same substance, in the test on Fusarium oxysporum, the “Plate antimicrobial activity test Fusarium oxysporum (level)” value is on record as 0. Besides, the “Plate antimicrobial activity test Pyricularia oryzae (level)” value in the test on Pyricularia oryzae (peptide 1 μM), in the test on Pyricularia oryzae (peptide 10 μM) and in the test on Pyricularia oryzae (peptide 100 μM) was 0 in each case.

Turning to “YGFPA (listed as Solanum lycopersicum) [TsORF18-2-5aa-2]”, the “Plate antimicrobial activity test Botrytis cinerea (level)” value with Botrytis cinerea (peptide 1 μM), in the test with Botrytis cinerea (peptide 10 μM) and with Botrytis cinerea (peptide 100 μM) was 0 throughout. Further, the “Plate antimicrobial activity test Collectotrichum orbiculare (level)” value in test [1] (peptide 1 μM), in test [1] (peptide 10 μM) and in test [1] (peptide 100 μM) was 0 throughout. In addition, the “Plate antimicrobial activity test Colletotrichum destructivum (level)” value in test [2] (peptide 1 μM), in test [2] (peptide 10 μM) and in test [2] (peptide 100 μM) was 0 in each case. The “Plate antimicrobial activity test Fusarium oxysporum (level)” value in the test on Fusarium oxysporum turned out to be 0. Further, the “Plate antimicrobial activity test Pyricularia oryzae (level)” value in the test on Pyricularia oryzae (peptide 1 μM), in the test with Pyricularia oryzae (peptide 10 μM) and in the test with Pyricularia oryzae (peptide 100 μM) was 0 throughout.

As to “YGFPAFSE (listed as Solanum lycopersicum) [TsORF18-2-8aa-2]”, the “Plate antimicrobial activity test Botrytis cinerea (level)” value in the test on Botrytis cinerea (peptide 1 μM), with Botrytis cinerea (peptide 10 μM) and in the test with Botrytis cinerea (peptide 100 μM) was 0 throughout. In addition, the “Plate antimicrobial activity test Collectotrichum orbiculare (level)” value in test [1] (peptide 1 μM), in test [1] (peptide 10 μM) and in test [1] (peptide 100 μM) was 0 in each case. Also, the “Plate antimicrobial activity test Colletotrichum destructivum (level)” value in test [2] (peptide 1 μM), in test [2] (peptide 10 μM) and in test [2] (peptide 100 μM) was 0 throughout. Also, in the test with Fusarium oxysporum, the “Plate antimicrobial activity test Fusarium oxysporum (level)” value is 0. The “Plate antimicrobial activity test Pyricularia oryzae (level)” value in the test with Pyricularia oryzae (peptide 1 μM), with Pyricularia oryzae (peptide 10 μM) and in the test with Pyricularia oryzae (peptide 100 μM) was 0 in each case.

Take “YYGFP (listed as Solanum lycopersicum) [TsORF18-2-5aa-1]”: the “Plate antimicrobial activity test Botrytis cinerea (level)” value in the test on Botrytis cinerea (peptide 1 μM), in the test with Botrytis cinerea (peptide 10 μM) and in the test with Botrytis cinerea (peptide 100 μM) was 0 throughout. For the same substance, the “Plate antimicrobial activity test Collectotrichum orbiculare (level)” value in test [1] (peptide 1 μM), in test [1] (peptide 10 μM) and in test [1] (peptide 100 μM) was 0 in each case. Also, the “Plate antimicrobial activity test Colletotrichum destructivum (level)” value in test [2] (peptide 1 μM), in test [2] (peptide 10 μM) and in test [2] (peptide 100 μM) was 0 throughout. For the same substance, the “Plate antimicrobial activity test Fusarium oxysporum (level)” value in the test with Fusarium oxysporum was found to be 0. The “Plate antimicrobial activity test Pyricularia oryzae (level)” value in the test with Pyricularia oryzae (peptide 1 μM), in the test on Pyricularia oryzae (peptide 10 μM) and in the test with Pyricularia oryzae (peptide 100 μM) was 0 throughout.
